Laboratory results published in patent US8034572B2, “Receptor for GDNF family ligands” (priority 2006, dated 2011).
pIC50, pKd: −log10 of the molar value.

What was measured:
GDNF [1] = target: T1, GDNF (Homo sapiens, UniProt P39905); assay: Scintillation proximity assay: tritium labeled heparin binding to and displacement from GDNF; conditions: FIG. 11
T1 construct: purchased PeproTech, Ltd. or R&D Systems, Inc
T1 sequence (P39905 78-211 limits assumed): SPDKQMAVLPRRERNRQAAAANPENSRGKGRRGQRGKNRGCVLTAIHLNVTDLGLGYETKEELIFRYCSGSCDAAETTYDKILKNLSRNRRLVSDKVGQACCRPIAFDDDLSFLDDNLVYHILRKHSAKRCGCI
Source text: The scintillation proximity assay (SPA) technology (Amersham) was used to assay the ability of the low molecular weight molecule (namely low molecular weight heparin from Sigma) to displace tritium labeled heparin from GDNF.
Small beads filled with scintillation liquid are covalently linked with anti-mouse antibodies that can capture mouse anti-FLAG-tag antibodies. In turn, GDNF that we produced by ourselves has a FLAG-tag on its N-terminus. Thus, GDNF is in close proximity to the scintillation beads. The tritium labeled high molecular weight heparin (a kind gift from Ulf Lindahl, Sweden) is administered in the surrounding solution. Labeled heparin binds GDNF, which is sitting on scintillation beads and induces light that is detected. […] This assay can be easily adopted to high-throughput format.
To test the ability of small molecules to displace heparin or heparan sulfates from GDNF they are simply mixed at different concentrations with the labeled heparin and the decrease of the signal is monitored. It does positively correlate with the concentration of the cold heparin. We did it in our study with low molecular weight heparin and got IC50 of approximately 10 nM, which correlates with other binding data (FIG. 11).

GDNF [2] = target: T1, GDNF; assay: SPR: competition of GDNF binding to heparin-BSA cuvette by heparin and desulfated heparins; conditions: competing out GDNF binding to heparin-BSA cuvette
Method: (§1) Specifically desulfated heparins (Takano et al., 1998) were used to assess the involvement of different sulfate groups in the GDNF-heparin interaction by following direct binding to GDNF cuvette, or by competing out GDNF binding to the heparin-BSA cuvette. Dissociation constants were determined from direct binding using increasing GDNF concentrations and by fitting the data to R=(Rmax*C)/(Kd+C) for heparin. For desulfated heparins, the best fit was achieved using equation R=(Rmax1*C)/(Kd1+C)+(Rmax2*C)/(Kd2+C), where Kd1 and Kd2 are apparent dissociation constants derived for two heparin sites of different affinities with maximum equilibrium response Rmax1 and Rmax2, respectively.

[3] = coinfusion into rat striatum; cited from earlier work
GDNF [4] = target: T1, GDNF; assay: SPR: direct binding of heparin or desulfated heparins to GDNF cuvette; conditions: apparent Kd from equilibrium response, read-out: Kd1
Method: as §1

GDNF-syndecan-3 complex = target: T2, GDNF-syndecan-3 complex (UniProt P33671+P39905); assay: Chemical cross-linking of ^125I-GDNF to C6 cells and immunoprecipitation with anti-syndecan-3; format: cell-based, rat; conditions: heparin 1 μg/ml; HB-GAM 150-fold molar excess; added with ^125I-GDNF
T2 construct: the rat glioma C6 cell line, which expresses syndecan-3; endogenous in cells; host or cells: rat glioma C6 cells (syndecan-3); GDNF purchased from PeproTech or R&D Systems and iodinated
Method: Glioma C6 cells were plated on 6-well plates and grown to 70% confluency. Cells were incubated with 1 nM ^125I-GDNF for 2 hours in binding buffer (Dulbecco's modified Eagle's medium, 0.2% BSA and 15 mM Hepes, pH 7.2) on ice. Unbound ligand was removed by washing three times with ice-cold PBS. The chemical cross-linker ethyl-dimethyl-aminopropyl-carbodimide (EDAC) supplemented with N-hydroxysuccinimide (NHS) (Sigma) was incubated with cells for 20 min at room temperature in PBS. The reaction was quenched with TBS for 15 min and cells were lysed in lysis buffer (TBS, 1% Triton X-100, 1% NP-40, 2 mM EDTA, 1 mM PMSF and Complete protease inhibitor mixture from Roche Molecular Biochemicals). Cell lysates were immunoprecipitated with anti-syndecan-3 antibodies (Nolo et al., 1995) and resolved on 7.5% SDS-PAGE. Autoradiography was performed with BAS1500 (Fuji). For heparinase III or PI-PLC treatment cells were incubated with 10 mU/ml heparinase III or with 1 U/ml PI-PLC, respectively for one hour at 37° C., 5% CO2 before ^125I-GDNF addition.

T2 sequence (P33671 45-442, one chain of several): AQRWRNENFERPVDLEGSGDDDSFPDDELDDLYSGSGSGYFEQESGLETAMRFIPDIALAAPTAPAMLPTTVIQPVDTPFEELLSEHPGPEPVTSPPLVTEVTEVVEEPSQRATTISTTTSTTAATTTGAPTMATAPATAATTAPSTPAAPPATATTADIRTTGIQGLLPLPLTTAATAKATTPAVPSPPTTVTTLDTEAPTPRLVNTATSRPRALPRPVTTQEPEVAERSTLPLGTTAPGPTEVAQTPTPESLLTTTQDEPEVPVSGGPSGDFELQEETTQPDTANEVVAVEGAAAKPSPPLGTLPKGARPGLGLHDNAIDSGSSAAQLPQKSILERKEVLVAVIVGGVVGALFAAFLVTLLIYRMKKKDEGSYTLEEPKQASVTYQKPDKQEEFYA

| Substance | pIC50 (GDNF [1]) | IC50 (GDNF [2]) | biodistribution of coinfused GDNF, NRTN or ARTN [3] | pKd (GDNF [4]) | effect on ^125I-GDNF binding to syndecan-3 on C6 cells (GDNF-syndecan-3 complex) |
| --- | --- | --- | --- | --- | --- |
| low molecular weight heparin | ~8.00 |  |  |  |  |
| heparin |  | 0.06 ng/mL | markedly increased their biodistribution | 8.02 | abolished ^125I-GDNF binding to syndecan-3 almost completely |
